The subject of data set [1] is DU145 cell line. In words: Mouse xenograft study (DU145). To be noted: DU145 xenograft, 100 mg/kg i.p. every other day, 31 days after treatment.
A short description of data set [2]: Dose finding and comparative toxicity study in mice. The class given is in vivo. On the set-up: key to Vital Sign, Day 8 / Vital Sign, Day 10 / Vital Sign, Day 16 / Vital Sign, Day 1 / Vital Sign, Day 3 / Vital Sign, Day 6: Normal (i.e. No sign of Toxicity); BCS = 2: BCS (Body Condition Score) = 2 indicates that mice are underconditioned (observable signs include segmentation of the vertebral column, palpability of the dorsal pelvic bones). To be noted: for Vital Sign, Day 1 / Vital Sign, Day 3 / Vital Sign, Day 6 / Vital Sign, Day 8 / Vital Sign, Day 10 / Vital Sign, Day 16: CD-1 mice (n = 6), 100 mg/kg once every other day. The text has this: The results are further illustrated hereinbelow in Table 4.

The target of data set [3] is T1, EGFR tyrosine kinase (Homo sapiens, UniProt P00533).
T1 construct: purchased
T1 sequence (P00533 25-1210): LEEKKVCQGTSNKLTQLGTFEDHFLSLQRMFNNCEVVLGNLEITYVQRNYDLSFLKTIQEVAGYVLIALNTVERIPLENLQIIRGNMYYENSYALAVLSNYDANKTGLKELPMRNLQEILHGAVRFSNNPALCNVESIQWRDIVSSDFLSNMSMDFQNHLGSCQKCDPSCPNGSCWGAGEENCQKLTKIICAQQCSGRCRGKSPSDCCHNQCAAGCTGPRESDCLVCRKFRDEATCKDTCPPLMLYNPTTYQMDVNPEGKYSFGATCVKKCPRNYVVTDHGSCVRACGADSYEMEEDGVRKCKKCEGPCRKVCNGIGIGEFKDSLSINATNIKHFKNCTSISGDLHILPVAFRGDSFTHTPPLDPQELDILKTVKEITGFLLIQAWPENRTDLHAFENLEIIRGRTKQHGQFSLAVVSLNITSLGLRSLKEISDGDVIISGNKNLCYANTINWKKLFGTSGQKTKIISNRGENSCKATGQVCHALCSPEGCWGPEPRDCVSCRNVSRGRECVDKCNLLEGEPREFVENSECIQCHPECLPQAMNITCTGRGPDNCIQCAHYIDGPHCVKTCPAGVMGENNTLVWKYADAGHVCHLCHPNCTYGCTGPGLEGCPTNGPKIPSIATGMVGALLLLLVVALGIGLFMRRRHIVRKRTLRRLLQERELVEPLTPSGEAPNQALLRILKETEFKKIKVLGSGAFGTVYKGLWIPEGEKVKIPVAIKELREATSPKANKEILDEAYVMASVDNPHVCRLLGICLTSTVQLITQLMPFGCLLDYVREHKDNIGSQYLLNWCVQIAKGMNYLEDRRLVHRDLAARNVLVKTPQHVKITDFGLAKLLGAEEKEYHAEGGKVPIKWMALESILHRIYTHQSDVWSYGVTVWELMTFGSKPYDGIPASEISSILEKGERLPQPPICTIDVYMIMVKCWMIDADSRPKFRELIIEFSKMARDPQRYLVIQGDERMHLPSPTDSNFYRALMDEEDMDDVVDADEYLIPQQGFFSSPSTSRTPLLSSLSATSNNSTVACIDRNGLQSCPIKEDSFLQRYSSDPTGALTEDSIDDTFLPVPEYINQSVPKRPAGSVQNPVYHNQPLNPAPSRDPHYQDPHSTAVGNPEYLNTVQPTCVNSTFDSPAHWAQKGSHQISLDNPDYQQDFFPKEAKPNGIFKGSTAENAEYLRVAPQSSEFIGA
In words: EGFR kinase enzyme assay (ELISA, PGT phosphorylation). The class given is biochemical. Here is the method:
EGFR Kinase Enzyme Assay: The EGFR kinase assay was performed following a known procedure. Briefly, Nunc MaxiSorp (Nalge Nunc International, Rochester, N.Y., USA) 96-well plates were incubated overnight at 37° C. with 100 μL/well of […] poly(L-glutamic acid-L-tyrosine, 4:1) PGT in PBS. Excess PGT was removed and the plates were washed three times with wash buffer (0.1% Tween-20 in PBS). The kinase reaction was performed using commercially available isolated EGFR (4.5 ng/well). The compound was added and phosphorylation was initiated by the addition of 20 μL/well of ATP (50 μM). After 8 min at room temperature with constant shaking, the reaction was terminated by aspiration of the reaction mixture and rinsing of the plates (four times) with wash buffer. Phosphorylated PGT was detected following a 25 min incubation with 50 μL/well of horseradish peroxidase-conjugated PY20 anti-phosphotyrosine antibody (Santa Cruz Biotechnology, Santa Cruz, Calif., USA) diluted to […] in blocking buffer (3% bovine serum albumin and 0.05% Tween-20 in PBS). The antibody was removed by aspiration and the plates washed four times with wash buffer. The signals were developed by the addition of 50 μL/well of 3,3′,5,5′-tetramethylbenzidine peroxidase substrate (Kirkegaard and Perry Laboratories, Gaithersberg, Md., USA). Following blue color development, H2SO4 (50 μL; 0.09 M) was added per well to stop the reaction. The plates were read at 450 nm using a Bio-Rad ELISA reader (model 2550; Bio-Rad, Hercules, Calif., USA).
Inhibition of EGFR TK: The EGFR TK inhibitory activity of JDF12 and its metabolite JDF04R was tested in a short 8 minute exposure to an ELISA assay. The assay was based on the inhibition of phosphorylation of poly(L-glutamic acid-L-tyrosine, 4:1) (PGT) by EGFR tyrosine kinase. […] As expected, the EGFR TK-inhibitory activity of MTZ was negligible (FIG. 1).
For orientation: In an ELISA, binding on a coated surface is turned into a signal by an enzyme label.

In data set [4] the target is T2, EGFR autophosphorylation in DU145 cells (Homo sapiens, UniProt P00533).
T2 construct: endogenous in cells; host or cells: DU145
T2 sequence (P00533 25-1210): as above
As to the kind of experiment: EGFR phosphorylation assay, whole cell (Western blot). The class given is cell-based. To be noted: DU145 cells, at concentrations as low as 6 μM. Here is the method:
EGFR Phosphorylation Assay: DU145 cells (1×10^6) were preincubated in a six-well plate using 10% serum at 37° C. over a period of 24 h followed by a starving period of 24 h. The cells where then exposed to a dose range of each drug over a period of 2 h and subsequently treated with 50 ng/ml of EGF for 20 min at 37° C. The cells were washed with PBS and resuspended in cold lysis buffer [50 mmol/L Tris-HCl (pH 7.5), 150 mmol/L NaCl, 1% NP40, 1 mmol/L EDTA, 5 mmol/L NaF, 1 mmol/L Na3VO4, protease inhibitor tablet (Roche Biochemicals, Laval, Quebec, Canada)]. The lysates were kept on ice for 30 min and collected by centrifugation at 10,000 rpm for 20 min at 4° C. The concentrations of protein were determined using the Bio-Rad protein assay kit (Bio-Rad Laboratories, Hercules, Calif.). Equal amounts of protein […] were subjected to a 10% SDS-polyacrylamide gel electrophoresis (SDS-PAGE) and transferred to a polyvinylidene difluoride membrane (Millipore, Bedford, Mass.). Nonspecific binding on the membrane was minimized with a blocking buffer containing bovine serum albumin (5%) in PBS-Tween 20. The membranes were subsequently incubated with primary anti-phosphotyrosine antibody (Upstate Biotechnology, Lake Placid, N.Y.) for the detection of phosphotyrosine. The membranes were stripped and reprobed with anti-EGFR (Neomarkers, Fremont, Calif.) for determination of corresponding receptor levels. Blots were incubated with horseradish peroxidase-goat anti-mouse antibody (1:1,000 dilution; Cell Signaling Research, Beverly, Mass.), and the bands visualized with an enhanced chemiluminescence system (Amersham Pharmacia Biotech,. Little Chalfont, UK). Band intensities were measured using the SynGene GeneTools software package.
Inhibition of EGFR TK in Whole Cell Assay: DU145 cells were starved for 24 h and stimulated with EGF in the presence of the different drugs over a period of 2 h. Inhibition of autophosphorylation of EGFR was analyzed by Western blotting. The observed order of potency from this whole cell assay paralleled the one previously observed with ELISA. […]
(A western blot detects proteins with antibodies after separation by electrophoresis.)

Data set [5] has as its system DU145 cells. In words: Alkaline comet assay for quantization of DNA damage. It is filed as cell-based, human. Here is the method: Alkaline Comet Assay for Quantization of DNA Damage: A modified alkaline comet assay technique was used for quantization of DNA damage induced in DU145 cells. The cells were exposed to a dose range of the drugs (JDF12, JDF04R, or MTZ) over a period of 2 h and harvested with trypsin-EDTA. The cells were subsequently collected by centrifugation and resuspended in PBS. The resulting cell suspensions were diluted to 3×10^5 cell/mL and mixed with agarose (0.75%) in PBS at 37° C. in a 1:9 dilution. The gels were cast on Gelband strips (Mandel Scientific, Guelph, Ontario, Canada) using gel casting chambers and then immediately placed into a lysis buffer (2.5 M NaCl, 0.1 M tetrasodium EDTA, 10 mM Trisbase, 1% (v/v) N-lauryl sarcosine, 10% (v/v) DMSO, and 1% (v/v) Triton X-100). After being kept overnight at 4° C., the gels were gently rinsed with distilled water and immersed in a second lysis buffer (2.5 M NaCl, 0.1 M tetrasodium EDTA, 10 mM Tris base) containing 1 mg/mL proteinase K for 60 min at 37° C. The cells were subsequently rinsed with distilled water, incubated in alkaline electrophoresis buffer for 30 min at 37° C. and electrophoresed at 400 mA for 20 min. The gels were then rinsed with distilled water and placed into 1 M ammonium acetate for 30 min. The gels were subsequently soaked in 100% ethanol for 2 h, dried overnight and stained with SYBR Gold (1:10000 dilution of stock supplied by Molecular Probes, Eugene, Oreg.) for 20 min. Comets were visualized at 330× magnification and DNA damage was assessed using the tail moment parameter (i.e. the distance between the barycenter of the head and the tail of the comet multiplied by the percentage DNA in the tail region). A minimum of 50 cell comets were analyzed for each sample, using Comet Assay χ v4.2 image analysis software, and the values presented as average tail moments for the entire cell population.
The reactive nature of the latter species makes its detection very difficult. However, the induction of DNA damage (i.e. DNA alkylation) represents evidence of its formation and fleeting presence.

For data set [6], the system named is LNCaP-EGFR. In words: Growth inhibition assay (SRB), LNCaP-EGFR. To be noted: 144 h, read-out: IC50 (x ± SD).
Experimental: (§1) Cell Culture: The human prostate cancer cell line DU145 was obtained from the American Type Culture Collection (Manassas, Va.)). The androgen-sensitive prostate cancer cell lines LNCaP-FGC, LNCaP-EGFR and LNCaP-erbB2 (stably transfected with EGFR erbB2 gene respectively) were generous gifts from Dr. Moulay Aloui-Jamali (Jewish General Hospital, Montreal, Quebec, Canada). […] The cultures were maintained in logarithmic growth by harvesting with a trypsin-EDTA solution containing 0.5 mg/mL trypsin and 0.2 mg/mL EDTA and replating before confluence. In all assays, the cells were plated over a period of time ranging from 24-48 h prior to drug administration.
Data set [7] has as its system DU145. In words: Growth inhibition assay (SRB), DU145. To be noted: Homo sapiens, DU-145, 144 h, read-out: IC50 (x ± SD).
Experimental: as §1
In data set [8] the test system is LNCaP-WT. In words: Growth inhibition assay (SRB), LNCaP-WT. To be noted: 144 h, read-out: IC50 (x ± SD).
Experimental: as §1
Data set [9] deals with LNCaP-ErbB2. As to the kind of experiment: Growth inhibition assay (SRB), LNCaP-ErbB2. To be noted: 144 h, read-out: IC50 (x ± SD).
Experimental: as §1
Where [10] appears, read: listed as Mitozolomide, 100 mg/kg.

“Also recorded” adds a separate entry of the source.

The results in this text go back to patent publication US20120283280A1, “IMIDAZOTETRAZINONE-BASED COMBI-MOLECULES” (priority 2011, published 2012).

Consider `COc1cc2ncnc(Nc3ccc(F)c(Cl)c3)c2cc1OCCCN1CCOCC1` [Iressa], for which the antitumor activity entry in [1] is “did not show significant antitumor activity”. Besides, in [2], the “Vital Sign, Day 1” value is listed as “Normal”; the “Vital Sign, Day 3” value is recorded as “Normal”; the “Vital Sign, Day 6” value is on record as “Normal”; the “Vital Sign, Day 8” value was “Normal”. For the same molecule, in [2], the “Vital Sign, Day 10” value is “Normal” and the “Vital Sign, Day 16” value was “Normal”. Besides, in data set [2] (CD-1 mice, 100 mg/kg), the “toxicity at 100 mg/kg” value is “no signs of toxicity”.

Usually IC50 stands for the concentration at which inhibition is half-maximal. As for `Nc1[nH]cnc1C(=O)Nc1ccc2ncnc(Nc3cccc(Cl)c3)c2c1` [JDF04R], the half-maximal inhibitory concentration (IC50) in data set [3] (ELISA, 8 minute exposure, PGT substrate, read-out: IC50, EGFR TK inhibition) was determined as 0.23 µM; in data set [6], 119 ± 4.1 µM; in [7], 151 ± 17 µM; in data set [8], 178 ± 13.3 µM; in data set [9], 111 ± 18.1 µM. Further, in data set [3] (JDF04R vs JDF12, ELISA IC50), the “more potent EGFR TK inhibitor than JDF12 (fold)” value is 2.7 fold. For the same molecule, the “inhibition of EGFR TK” value in [4] was around 100%. Besides, the “DNA damage (tail moment)” value in data set [5] (DU145 cells, 2 h exposure) is given as “did not demonstrate any DNA damaging activity”.

Regarding `NC(=O)c1ncn2c(=O)n(CCCl)nnc12` [MTZ, 8-carbamoyl-3-(2-chloroethyl)imidazo[5,1-d]-1,2,3,5-tetrazin-4(3H)-one], the “EGFR TK-inhibitory activity” value in data set [3] (ELISA, FIG. 1) is recorded as “negligible”. Moreover, in data set [2], the “Vital Sign, Day 1” value is given as “Normal” and the “Vital Sign, Day 3” value is “Normal”. In data set [2] (setting [10]), the “Vital Sign, Day 6” value is “Weight loss > 20% (1 mouse); also recorded: Death (1 mouse); also recorded: (BCS = 2)”; the “Vital Sign, Day 8” value is reported as “(BCS = 2); also recorded: Weight loss > 20% (1 mouse)”; the “Vital Sign, Day 10” value was “(BCS = 2); also recorded: Weight loss > 20% (1 mouse)”; the “Vital Sign, Day 16” value is given as “(BCS = 2); also recorded: All Mice Thin; also recorded: Death (3 mice)”. For the same molecule, the “toxicity at 100 mg/kg” value in data set [2] (CD-1 mice, 100 mg/kg) is given as “toxic at this dose”. In [2] (CD-1 mice, 100 mg/kg, 6-10 days after initiating treatment), the “overall body condition score (BCS)” value came out at 2. Also, in data set [5], the “level of DNA damage, fold higher than JDF12” value is on record as “approximately 2 fold”. Further, the concentration for half-maximal inhibition (IC50) in [6] is 176 ± 6.51 µM. Also, in data set [7], the IC50 stood at 179 ± 21.1 µM. The 50% inhibitory concentration (IC50) in data set [8] worked out at 150 ± 7.92 µM. Besides, the half-maximal inhibitory concentration (IC50) in [9] was found to be 142 ± 8.93 µM.
